Measured values taken from patent US20100120762A1, “Triazine derivatives as inhibitors of phosphodiesterases” (WYETH, priority 2008, published 2010).

How the values were obtained:
PDE2A (NM002599) = target: T1, PDE2A (NM002599) (Homo sapiens, UniProt O00408); test: Inhibition of recombinant PDE2A (expressed in baculovirus/SF21-cells); assay type: biochemical; conditions: recombinant PDE2A, 0.5 μM [3H]-cAMP, 1000 nM cGMP, 37° C., 30 minutes, SPA; read-out: PDE2A IC50
T1 construct: made in house; host or cells: baculovirus / SF21 insect cells
T1 sequence (O00408 whole entry): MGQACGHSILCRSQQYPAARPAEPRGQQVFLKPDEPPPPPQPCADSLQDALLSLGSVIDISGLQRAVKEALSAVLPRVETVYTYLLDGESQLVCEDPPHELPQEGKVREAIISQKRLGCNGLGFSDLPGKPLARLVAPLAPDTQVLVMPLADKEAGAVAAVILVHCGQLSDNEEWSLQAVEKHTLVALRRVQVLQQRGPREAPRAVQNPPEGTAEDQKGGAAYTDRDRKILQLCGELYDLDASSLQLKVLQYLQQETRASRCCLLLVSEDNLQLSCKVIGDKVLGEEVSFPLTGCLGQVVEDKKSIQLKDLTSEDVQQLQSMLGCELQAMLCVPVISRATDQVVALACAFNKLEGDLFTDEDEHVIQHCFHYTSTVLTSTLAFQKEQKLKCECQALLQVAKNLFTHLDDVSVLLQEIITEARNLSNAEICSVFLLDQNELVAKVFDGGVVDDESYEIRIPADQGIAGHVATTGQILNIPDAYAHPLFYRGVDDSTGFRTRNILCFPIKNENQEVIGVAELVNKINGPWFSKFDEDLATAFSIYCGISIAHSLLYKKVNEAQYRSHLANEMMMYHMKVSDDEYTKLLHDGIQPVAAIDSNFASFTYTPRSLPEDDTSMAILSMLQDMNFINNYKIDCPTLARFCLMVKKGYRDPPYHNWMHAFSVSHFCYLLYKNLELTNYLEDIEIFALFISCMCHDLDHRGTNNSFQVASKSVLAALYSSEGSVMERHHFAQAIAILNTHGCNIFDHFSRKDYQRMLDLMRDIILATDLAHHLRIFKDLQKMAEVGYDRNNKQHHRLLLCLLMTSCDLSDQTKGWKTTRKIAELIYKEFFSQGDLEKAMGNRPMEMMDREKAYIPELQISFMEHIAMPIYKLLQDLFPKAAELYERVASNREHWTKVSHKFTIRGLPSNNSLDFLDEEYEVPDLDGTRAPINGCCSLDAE
Protocol: PDE2A (NM002599) was cloned and the gene was inserted in the baculovirus and the enzyme-protein expressed in SF21-cells. The enzyme was isolated from these cells by harvesting the cells by an centrifugation at 200 g to collect the cells. The cells were resuspended in 50 mM Tris-HCl/5 mM MgCl2 buffer (pH=7.4) (Sigma, Deisenhofen, Germany; Merck, Darmstadt, Germany) and lysed by a sonication of the cells (three times for 15 seconds, Labsonic U, Fa. Braun, Degersheim, Switzerland, level “high”). The membrane fraction of PDE2A was obtained by a centrifugation at 48 000 g for 1 h, resuspended in buffer and stored at −70° C.
PDE2A activity was determined in a one step procedure in microtiterplates. The reaction mixture of 100 μl contained 50 mM Tris-HCl/5 mM MgCl2 buffer (pH=7.4) (Sigma, Deisenhofen, Germany; Merck, Darmstadt, Germany), 0.5 μM [3H]-cAMP (Amersham, Buckinghamshire, UK), 1000 nM cGMP and the enzyme. Non-specific enzyme activity was tested in the absence of cGMP. The reaction was initiated by addition of the substrate solution and was carried out at 37° C. for 30 minutes. Enzymatic activity then was stopped by addition of 25 μl SPA-beads (Amersham-Pharmacia). One hour later the mixture was measured in a liquid scintillation counter for microtiterplates (Microbeta Trilux). For pipetting of the incubation mixture the robot Biomek (Fa. Beckman) was routinely used.
The optimal amount of enzyme in the assay has been determined and optimised for each enzyme preparation separately before using the enzyme in compound testing. For determination of IC50 values the Hill-plot, 2-parameter-model, was used.

PDE10A1 (AB 020593) = target: T2, PDE10A1 (AB 020593) (Homo sapiens, UniProt Q9Y233); test: Inhibition of recombinant PDE10A (baculovirus/SF21 system); assay type: biochemical; conditions: recombinant cytosolic PDE10A, 0.1 μM [3H]-cAMP, 37° C., 30 minutes, SPA; read-out: PDE10A IC50
T2 construct: made in house; host or cells: baculovirus / SF21 insect cells (gene synthesized by Entelechon GmbH)
T2 sequence (Q9Y233 other isoform, or with tags, fused parts or gaps): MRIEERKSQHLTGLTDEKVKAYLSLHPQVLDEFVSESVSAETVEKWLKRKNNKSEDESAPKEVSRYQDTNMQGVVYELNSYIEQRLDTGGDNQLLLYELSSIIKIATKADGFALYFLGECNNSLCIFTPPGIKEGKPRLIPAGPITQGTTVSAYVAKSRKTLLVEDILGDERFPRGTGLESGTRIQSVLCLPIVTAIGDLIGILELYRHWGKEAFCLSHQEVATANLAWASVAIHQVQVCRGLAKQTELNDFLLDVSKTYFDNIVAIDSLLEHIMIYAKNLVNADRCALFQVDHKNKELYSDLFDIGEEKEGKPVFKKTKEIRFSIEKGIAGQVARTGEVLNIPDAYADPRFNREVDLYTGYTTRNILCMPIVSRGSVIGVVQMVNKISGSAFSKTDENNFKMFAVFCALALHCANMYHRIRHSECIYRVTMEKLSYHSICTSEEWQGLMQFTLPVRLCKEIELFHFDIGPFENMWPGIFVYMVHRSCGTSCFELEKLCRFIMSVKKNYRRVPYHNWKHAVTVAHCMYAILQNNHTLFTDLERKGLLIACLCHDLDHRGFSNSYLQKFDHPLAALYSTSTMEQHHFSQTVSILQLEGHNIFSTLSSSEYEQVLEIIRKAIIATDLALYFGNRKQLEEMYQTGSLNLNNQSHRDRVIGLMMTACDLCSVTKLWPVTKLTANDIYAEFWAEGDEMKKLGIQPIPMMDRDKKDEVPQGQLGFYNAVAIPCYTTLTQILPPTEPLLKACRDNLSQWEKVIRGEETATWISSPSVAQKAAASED
Protocol: The DNA of PDE10A1 (AB 020593, 2340 bp) was synthesized and cloned into the vector pCR4.TOPO (Entelechon GmbH, Regensburg, Germany). The gene was than inserted into a baculovirus vector, ligated with the baculovirus DNA. The enzyme-protein was expressed in SF21-cells. The enzyme was isolated from these cells by harvesting the cells by an centrifugation at 500 g to collect the cells.
The cells were resuspended in 50 mM Tris-HCl/1 mM EDTA/250 mM Sucrose buffer, pH=7.4 (Sigma, Deisenhofen, Germany; Merck, Darmstadt, Germany) and lysed by sonification of the cells (three times for 15 seconds, Labsonic U, Fa. Braun, Degersheim, Switzerland, level “high”). The cytosolic PDE10A was obtained by a centrifugation at 48,000 g for 1 h in the supernatant and stored at −70° C.
PDE activity was determined in a one step procedure in microtiter plates. The reaction mixture of 100 μl contained 50 mM Tris-HCl/5 mM MgCl2 buffer (pH=7.4, Sigma, Deisenhofen, Germany; Merck, Darmstadt, Germany) 0.1 μM [3H]-cAMP (Amersham, Buckinghamshire, UK) and the enzyme. Non-specific enzyme activity was determined without the enzyme. The reaction was initiated by addition of the substrate solution and was carried out at 37° C. for 30 minutes. Enzymatic activity then was stopped by addition of 25 μl Ysi-SPA-beads (Amersham-Pharmacia). One h later the mixture was measured in a liquid scintillation counter for microtiter plates (Microbeta Trilux). The Biomek 2000 (Beckman) was used routinely for pipetting of the incubation mixture. The optimal amount of enzyme in the assay has been determined and optimized for each enzyme preparation separately before using the enzyme in compound testing. For determination of IC50 values the Hill-plot, 2-parameter-model, was used.

| Compound | IC50 (PDE2A (NM002599)) | IC50 (PDE10A1 (AB 020593)) |
| --- | --- | --- |
| CCOc1cc(F)cc(-c2nc(C)c3nnc4ccc(OC)nc4n23)c1 [Example 29, 9-(3-ethoxy-5-fluorophenyl)-2-methoxy-7-methylimidazo[5,1-c]pyrido[2,3-e][1,2,4]triazine] | 380 nM | 341 nM |
| 1-(2-Chloro-3-methyl-3H-imidazol-4-yl)-8-methoxy-3-methyl-imidazo[5,1-c]pyrido[2,3-e][1,2,4]triazine [Example 107] | 358 nM | 600 nM |
| COc1ccc2nnc3c(C)nc(-c4cnn(C)c4)n3c2n1 [Example 79, 2-methoxy-7-methyl-9-(1-methyl-1H-pyrazol-4-yl)imidazo[5,1-c]pyrido[2,3-e][1,2,4]triazine] | 523 nM | 362 nM |
| COc1ccc2nnc3c(C)nc(-c4cccc(OC)c4OC)n3c2n1 [Example 37, 9-(2,3-dimethoxyphenyl)-2-methoxy-7-methylimidazo[5,1-c]pyrido[2,3-e][1,2,4]triazine] | 274 nM | 146 nM |
| COc1cc(OC)cc(-c2nc(C)c3nnc4ccc(OC)nc4n23)c1 [Example 26, 9-(3,5-dimethoxyphenyl)-2-methoxy-7-methylimidazo[5,1-c]pyrido[2,3-e][1,2,4]triazine] | 125 nM | 120 nM |
| COc1ccc2nnc3c(C)nc(-c4cnccc4C)n3c2n1 [Example 51, 2-methoxy-7-methyl-9-(4-methylpyridin-3-yl)imidazo[5,1-c]pyrido[2,3-e][1,2,4]triazine] | 142 nM | 388 nM |
| COc1ccc2nnc3c(C)nc(-c4cccc(OC)c4Cl)n3c2n1 [Example 39, 9-(2-chloro-3-methoxyphenyl)-2-methoxy-7-methylimidazo[5,1-c]pyrido[2,3-e][1,2,4]triazine] | 111 nM | 115 nM |
| COc1ccc2nnc3c(C)nc(-c4cccnc4OC)n3c2n1 [Example 32, 2-methoxy-9-(2-methoxypyridin-3-yl)-7-methylimidazo[5,1-c]pyrido[2,3-e][1,2,4]triazine] | 188 nM | 209 nM |
| COc1ccc2nnc3c(C)nc(-c4cc(Cl)ccc4OC)n3c2n1 [Example 98, 9-(5-chloro-2-methoxyphenyl)-2-methoxy-7-methylimidazo[5,1-c]pyrido[2,3-e][1,2,4]triazine] | 62.9 nM | 86.9 nM |
| COc1ccc2nnc3c(C)nc(-c4cc(F)cc(C(N)=O)c4)n3c2n1 [Example 82, 3-fluoro-5-(2-methoxy-7-methylimidazo[5,1-c]pyrido[2,3-e][1,2,4]triazin-9-yl)benzamide] | 279 nM | 141 nM |
| 1-(2-Ethoxy-5-methyl-phenyl)-8-methoxy-3-methyl-imidazo[5,1-c]pyrido[2,3-e][1,2,4]triazine [Example 104] | 162 nM | 871 nM |
| COc1ccc2nnc3c(C)nc(-c4ccc5nccn5c4)n3c2n1 [Example 48, 9-imidazo[1,2-a]pyridin-6-yl-2-methoxy-7-methylimidazo[5,1-c]pyrido[2,3-e][1,2,4]triazine] | 550 nM | 260 nM |
| COc1ccc2nnc3c(C)nc(-c4cccnc4)n3c2n1 [Example 55, 2-methoxy-7-methyl-9-pyridin-3-ylimidazo[5,1-c]pyrido[2,3-e][1,2,4]triazine] | 144 nM | 682 nM |
| COc1ccc2nnc3c(C)nc(-c4cccc(Cl)c4C)n3c2n1 [Example 94, 9-(3-chloro-2-methylphenyl)-2-methoxy-7-methylimidazo[5,1-c]pyrido[2,3-e][1,2,4]triazine] | 89.5 nM | 69.2 nM |
| COc1ccnc2c1nnc1c(C)nc(-c3cccnc3C)n12 [Example 116, 4-methoxy-7-methyl-9-(2-methylpyridin-3-yl)imidazo[5,1-c]pyrido[2,3-e][1,2,4]triazine] | 1150 nM | 15.1 nM |
| COc1cc(-c2nc(C)c3nnc4ccc(OC)nc4n23)cc(C(F)(F)F)c1 [Example 31, 2-methoxy-9-[3-methoxy-5-(trifluoromethyl)phenyl]-7-methylimidazo[5,1-c]pyrido[2,3-e][1,2,4]triazine] | > 1000 nM | > 1000 nM |

The next compounds have a lower IC50 (PDE2A (NM002599)) than those just listed; values first:

| IC50 (PDE2A (NM002599)) | IC50 (PDE10A1 (AB 020593)) | Compound |
| --- | --- | --- |
| 55.6 nM | 226 nM | COc1ccc2nnc3c(C)nc(-c4cnc(F)c(C)c4)n3c2n1 [Example 67, 9-(6-fluoro-5-methylpyridin-3-yl)-2-methoxy-7-methylimidazo[5,1-c]pyrido[2,3-e][1,2,4]triazine] |
| 51.2 nM | 43.6 nM | COc1ccc2nnc3c(C)nc(-c4cscc4C)n3c2n1 [Example 77, 2-methoxy-7-methyl-9-(4-methylthiophen-3-yl)imidazo[5,1-c]pyrido[2,3-e][1,2,4]triazine] |
| 29.8 nM | 420 nM | COc1ccc2nnc3c(C)nc(-c4cc(C#N)ccc4Cl)n3c2n1 [Example 87, 4-chloro-3-(2-methoxy-7-methylimidazo[5,1-c]pyrido[2,3-e][1,2,4]triazin-9-yl)benzonitrile] |
| 29.6 nM | 147 nM | COc1ccc2nnc3c(C)nc(-c4cccnc4F)n3c2n1 [Example 53, 9-(2-fluoropyridin-3-yl)-2-methoxy-7-methylimidazo[5,1-c]pyrido[2,3-e][1,2,4]triazine] |
| 28.6 nM | 114 nM | CCOc1ccc(F)c(-c2nc(C)c3nnc4ccc(OC)nc4n23)c1 [Example 28, 9-(5-ethoxy-2-fluorophenyl)-2-methoxy-7-methylimidazo[5,1-c]pyrido[2,3-e][1,2,4]triazine] |
| 27.5 nM | 403 nM | COc1ccc2nnc3c(C)nc(-c4cc(C(C)=O)ccc4Cl)n3c2n1 [Example 49, 1-[4-chloro-3-(2-methoxy-7-methylimidazo[5,1-c]pyrido[2,3-e][1,2,4]triazin-9-yl)phenyl]ethanone] |
| 24.3 nM | 38 nM | COc1ccc2nnc3c(C)nc(-c4cc(F)ccc4C)n3c2n1 [Example 73, 9-(5-fluoro-2-methylphenyl)-2-methoxy-7-methylimidazo[5,1-c]pyrido[2,3-e][1,2,4]triazine] |
| 21.3 nM | 35.6 nM | COc1ccc2nnc3c(C)nc(-c4cccc(F)c4C)n3c2n1 [Example 56, 9-(3-fluoro-2-methylphenyl)-2-methoxy-7-methylimidazo[5,1-c]pyrido[2,3-e][1,2,4]triazine] |
| 21.2 nM | 64.4 nM | COc1ccc2nnc3c(C)nc(-c4ccc(F)cc4C)n3c2n1 [Example 57, 9-(4-fluoro-2-methylphenyl)-2-methoxy-7-methylimidazo[5,1-c]pyrido[2,3-e][1,2,4]triazine] |
| 15.9 nM | 126 nM | COc1ccc2nnc3c(C)nc(-c4cccnc4C)n3c2n1 [Example 50, 2-methoxy-7-methyl-9-(2-methylpyridin-3-yl)imidazo[5,1-c]pyrido[2,3-e][1,2,4]triazine] |
| 14.4 nM | 51.5 nM | COc1ccc2nnc3c(C)nc(-c4cncc(C)c4)n3c2n1 [Example 33, 2-methoxy-7-methyl-9-(5-methylpyridin-3-yl)imidazo[5,1-c]pyrido[2,3-e][1,2,4]triazine] |
| 2.99 nM | 9.83 nM | COc1ccc(F)c(-c2nc(C)c3nnc4ccc(OC)nc4n23)c1 [Example 19, 9-(2-fluoro-5-methoxyphenyl)-2-methoxy-7-methylimidazo[5,1-c]pyrido[2,3-e][1,2,4]triazine] |
| 2.33 nM | 70.9 nM | COc1ccc2nnc3c(C)nc(-c4cc(Cl)ccc4Cl)n3c2n1 [Example 9, 1-(2,5-dichlorophenyl)-8-methoxy-3-methyl-imidazo[5,1-c]-pyrido[2,3-e][1,2,4]triazine] |
